In paper PMC10016038, “Enhanced Endosomal Signaling and Desensitization of GLP-1R vs GIPR in Pancreatic Beta Cells” (Endocrinology, 2023):

Assays:
SNAP-tagged human GIPR [1] = assay: TR-FRET receptor clustering, SNAP-GIPR; format: cell-based; conditions: 100 nM, 37 °C, n = 4
Protocol: The time-resolved fluorescence resonance energy transfer (TR-FRET) assay was performed as previously described ([24]). INS-1 832/3 SNAP-GLP-1R or SNAP-GIPR cells were labeled in suspension with 40 nM SNAP-Lumi4-Tb and 1 mM SNAP-Surface 649 (New England Biolabs, Hitchin, UK) for 1 hour at room temperature in complete medium. […] TR-FRET was quantified as the ratio of fluorescent signal at 665 nm to that at 616 nm, after subtraction of background signal at each wavelength.
Figure 3. GLP-1R vs GIPR clustering propensities in beta cells. […] Diffusion coefficients for individual ROIs are indicated on each image, with corresponding intensity traces, as well as 2D and fitted 3D autocorrelation maps for each ROI, are also depicted. (B) Average RICS diffusion coefficients for each receptor and treatment for each cell analyzed from n = 4 experiments. (C) GLP-1R clustering kinetics measured by TR-FRET in INS-1 832/3 SNAP-GLP-1R cells treated with 100 nM agonist as indicated, with vehicle-corrected AUCs included; n = 4. (D) GIPR clustering kinetics measured by TR-FRET in INS-1 832/3 SNAP-GIPR cells treated with 100 nM agonist as indicated, with vehicle-corrected AUCs included; n = 4. Data are mean ± SEM, compared by one-way ANOVA with Sidak's test; ****P < .0001; ns: non-significant. […] Best readings: GLP-1R Veh i 2.03, ii 1.56, iii 1.44 μm^2/s; GIPR Veh i 0.80, ii 0.34, iii 0.44 μm^2/s. […]

[2] = system: calcium response in INS-1 832/3 cells; assay: Calcium assay, INS-1 832/3 cells; format: cell-based, rat; conditions: for Calcium response, net difference between both receptors: INS-1 832/3
Protocol: Imaging of INS-1 832/3 cells or whole-islet Ca^2+ dynamics was performed as follows: cells or Matrigel-encased islets from individual animals were loaded with the Ca^2+ responsive dye Cal-520 AM (AAT Bioquest), pre-incubated for 1 hour in KRBH G6, and imaged in MatTek glass bottom dishes every 6 second at 488 nm using a Nikon Eclipse Ti microscope with an ORCA-Flash 4.0 camera (Hamamatsu) and Metamorph software (Molecular Devices) while maintained at 37 °C on a heated stage. Raw fluorescence intensity traces from cell-occupied areas or islet ROIs were extracted using Fiji. Responses were plotted relative to the average fluorescence intensity during the 6 mM glucose baseline period, before agonist addition.
(§1) Figure 7. Functional analysis of GLP-1R vs GIPR signaling in beta cells. […] Data are mean ± SEM, compared by paired t tests; *P < .05; ns, nonsignificant.

[3] = system: INS-1 832/3 GIPR KO cells; assay: Insulin secretion assay, GIPR KO cells; format: cell-based, rat; conditions: 100 nM, 11 mM glucose; n = 4
Protocol: At the end of the treatments, the supernatant containing the secreted insulin was collected, centrifuged at 1000g for 3 minutes, and transferred to a fresh tube. To determine total insulin content, cells were lysed using KRBH buffer + 1% w/v BSA + 1% v/v Triton X-100 (Sigma). The lysates were sonicated 3 × 10 seconds in a water bath sonicator and centrifuged at 10 000g for 10 minutes, and the supernatants collected. The samples were stored at −20 °C until the insulin concentration was determined using an Insulin Ultra-Sensitive HTRF Assay kit (62IN2PEG, Cisbio, Codolet, France) according to the manufacturer's instructions.
as §1

GLP-1R-NanoLuc = assay: Rab5-Venus bystander NanoBRET (early endosome), GLP-1R; format: cell-based; conditions: n = 5
Text: GLP-1R-NanoLuc was generated in house by polymerase chain reaction (PCR) cloning of the NanoLuciferase sequence from pcDNA3.1-ccdB-NanoLuc (a gift from Prof. Mikko Taipale; Addgene plasmid # 87067) onto the C-terminus end of the SNAP-GLP-1R vector (CisBio), followed by site-directed mutagenesis of the GLP-1R stop codon. GIPR-NanoLuc was subsequently cloned in house by exchanging the GLP-1R for the GIPR in the GLP-1R-NanoLuc construct. KRAS- and Rab5-Venus plasmids were a gift from Prof. Kevin Pfleger, University of Western Australia. The INS-1 832/3 GLP-1R KO and GIPR KO cells were seeded in 12-well plates and co-transfected with 0.2 µg KRAS-Venus and 0.1 µg GLP-1R- or GIPR-NanoLuc, respectively, or 0.5 µg Rab5-Venus and 0.1 µg GLP-1R- or GIPR-NanoLuc, respectively.
All NanoBiT and NanoBRET readings were obtained in a Flexstation 3 plate reader. Briefly, 24 hours after transfection, cells were detached, resuspended in NanoGlo Live Cell Reagent (Promega) with furimazine (1:20 dilution) and seeded into white 96-well half-area plates. […] Readings were normalized to well baseline and then to average vehicle-induced signal to establish the agonist-induced effect. AUCs from response curves were calculated for each agonist concentration and fitted to four-parameter curves using Prism 9 (GraphPad).
Figure 2. Endosomal vs plasma membrane localization of GLP-1R compared with GIPR in beta cells. […]

SNAP-tagged human GIPR [4] = assay: DERET internalization assay, INS-1 832/3 SNAP-GIPR cells; format: cell-based; conditions: non-cognate agonist GLP-1, or both agonists combined
Protocol: The diffusion-enhanced resonance energy transfer (DERET) assay was performed as previously described ([21]). The INS-1 832/3 SNAP-GLP-1R or SNAP-GIPR cells were labeled in suspension with Lumi4-Tb (40 nM) for 30 minutes in complete media. After washing, cells were resuspended in HBSS containing 24 µM fluorescein and dispensed into 96-well white plates. A baseline read was serially recorded over 5 minutes using a Flexstation 3 instrument at 37 °C in time-resolved fluorescence resonance energy transfer (TR-FRET) mode using the following settings: λex 340 nm, λem 520 and 620 nm, auto-cutoff, delay 400 µs, integration time 1500 µs. Ligands were then added, after which signal was repeatedly recorded for 30 minutes. Fluorescence signals were expressed ratiometrically after first subtracting signal from wells containing 24 µM fluorescein but no cells. Internalization was quantified as area under the curve (AUC) relative to individual well baseline.
Note that surface expression levels of SNAP-GLP-1R and SNAP-GIPR were similar within these 2 cell models (Supplemental Fig. 1A) ([32]).

Substance	GIPR clustering (SNAP-tagged human GIPR [1])	Calcium response, net difference between both receptors ([2]; Cal-520 AM, 100 nM, n = 4)	Calcium response, GIPR compared with GLP-1R, 0-1 minute ([2]; Cal-520 AM, 100 nM, first minute, n = 4)	Calcium response, GIPR compared with GLP-1R, 1-5 minutes ([2]; Cal-520 AM, 100 nM, following 4 minutes, n = 4)	Calcium response tendency, GIP vs GLP-1, INS-1 832/3 ([2]; summary in discussion)	Insulin secretion response in GIPR KO cells [3]	Agonist-mediated redistribution of GLP-1R to Rab5-positive early endosomes (GLP-1R-NanoLuc)	GIPR internalization (SNAP-tagged human GIPR [4])
GIP(1-42)	could not be detected	zero net difference	initial trend for a decreased GIPR compared with GLP-1R response	this tendency was reversed	tendency toward increased	abolished	–	–
GLP-1(7-36)NH2	not detectable	zero net difference	–	–	–	–	clearly detectable	negligible
